Experiment [1] relates to cells from the thymus of normal BALB/c mice (lymphocyte proliferation). Description: LAF assay: comitogen-induced thymocyte proliferation (inhibition of lymphocyte proliferation). Type of experiment: cell-based. The method, then: Immunosuppressive activity was determined in an in vitro standard pharmacological test to measure lymphocyte proliferation (LAF). […] Thus in this assay, the invention compounds have LAF activity equal or greater than rapamycin and would therefore be expected to posses the immunological properties of rapamycin and be useful in the treatment of transplantation rejection and autoimmune diseases such as lupus, rheumatoid arthritis, diabetes mellitus, multiple sclerosis, psoriasis and the like. Because of the structural similarity of the invention compounds with rapamycin and other analogs having antifungal activity against several strains of Candida albicans, the compounds of this invention would also be expected to have antifungal properties. Similarly, the compounds of this invention would be expected to have antiinflammatory activity.
The comitogen-induced thymocyte proliferation procedure (LAF) was used as an in vitro measure of the immunosuppressive effects of representative compounds. Briefly, cells from the thymus of normal BALB/c mice are cultured for 72 hours with PHA and IL-1 and pulsed with tritiated thymidine during the last six hours. Cells are cultured with and without various concentrations of rapamycin, cyclosporin A, or test compound. Cells are harvested and incorporated; radioactivity is determined. Inhibition of lymphoproliferation is assessed in percent change in counts per minute from non-drug treated controls. The results are expressed by the following ratio, or as the percent inhibition of lymphoproliferation at a concentration of 1 μM or as the IC50. [formula]

The conditions of experiment [2]: cited from earlier work.
In experiment [3] the test system is Candida albicans. Particulars: particularly against Candida albicans; cited from earlier work.
Experiment [4] relates to Candida albicans. Particulars: particularly against Candida albicans; cited from earlier work. The source holds these as a separate data set.
The next experiment concerns tumor. Particulars: alone or in combination with picibanil; cited from earlier work.
For experiment [5] the following is noted: in vivo; cited from earlier work.
The conditions of experiment [6]: in vivo; cited from earlier work. This is another data set of the same source.
Another experiment has as its system IgE-like antibodies. Particulars: in vivo; cited from earlier work.
Where [7] appears, read: Mus musculus, Lymphocyte, 72 h, Table I, 72 hours culture with PHA and IL-1, read-out: IC50 Ester (IC50 data for LAF assay).

A word on the IC50: it is the concentration that gives 50% inhibition.

Values joined by “and” are separate entries in the source; they are usually repeats but may differ in a detail not shown here. Identical values can stand only once. Like-named read-outs stand apart in the source and are kept apart here.

As to `COC(=O)O[C@@H]1/C(C)=C/[C@@H](C)C(=O)C[C@@H]([C@H](C)C[C@@H]2CC[C@@H](OC(=O)OC)[C@H](OC)C2)OC(=O)[C@@H]2CCCCN2C(=O)C(=O)[C@]2(O)O[C@@H](CC[C@H]2C)C[C@H](OC)/C(C)=C/C=C/C=C/[C@@H](C)C[C@@H](C)C(=O)[C@@H]1OC` [Example 1A, 31, 42-O-Bis(methoxycarbonyl)rapamycin], the IC50 in experiment [1] (setting [7]) is 0.87 nM. On the same count and under the same terms, under `COC(=O)O[C@@H]1CC[C@@H](C[C@@H](C)[C@@H]2CC(=O)[C@H](C)/C=C(\C)[C@@H](O)[C@@H](OC)C(=O)[C@H](C)C[C@H](C)/C=C/C=C/C=C(\C)[C@@H](OC)C[C@@H]3CC[C@@H](C)[C@@](O)(O3)C(=O)C(=O)N3CCCC[C@H]3C(=O)O2)C[C@H]1OC` [Example 1B, 42-O-Methoxycarbonylrapamycin] stands 2.5 nM.

Regarding `CCOC(=O)O[C@@H]1/C(C)=C/[C@@H](C)C(=O)C[C@@H]([C@H](C)C[C@@H]2CC[C@@H](OC(=O)OCC)[C@H](OC)C2)OC(=O)[C@@H]2CCCCN2C(=O)C(=O)[C@]2(O)O[C@@H](CC[C@H]2C)C[C@H](OC)/C(C)=C/C=C/C=C/[C@@H](C)C[C@@H](C)C(=O)[C@@H]1OC` [Example 2A, 31, 42-O-Bis(ethoxycarbonyl)rapamycin], the half-maximal inhibitory concentration (IC50) in experiment [1] (setting [7]) was found to be 2 nM. Same read-out and setting: for `CCOC(=O)O[C@@H]1CC[C@@H](C[C@@H](C)[C@@H]2CC(=O)[C@H](C)/C=C(\C)[C@@H](O)[C@@H](OC)C(=O)[C@H](C)C[C@H](C)/C=C/C=C/C=C(\C)[C@@H](OC)C[C@@H]3CC[C@@H](C)[C@@](O)(O3)C(=O)C(=O)N3CCCC[C@H]3C(=O)O2)C[C@H]1OC` [Example 2B, 42-O-Ethoxycarbonylrapamycin] the value was 0.6 nM; for `CO[C@H]1C[C@@H]2CC[C@@H](C)[C@@](O)(O2)C(=O)C(=O)N2CCCC[C@H]2C(=O)O[C@H]([C@H](C)C[C@@H]2CC[C@@H](OC(=O)Oc3ccccc3)[C@H](OC)C2)CC(=O)[C@H](C)/C=C(\C)[C@@H](O)[C@@H](OC)C(=O)[C@H](C)C[C@H](C)/C=C/C=C/C=C/1C` [Example 3, 42-O-(Phenyloxycarbonyl)rapamycin], 0.34 nM. The same measure, in the same setting: for `CO[C@H]1C[C@@H]2CC[C@@H](C)[C@@](O)(O2)C(=O)C(=O)N2CCCC[C@H]2C(=O)O[C@H]([C@H](C)C[C@@H]2CC[C@@H](OC(=O)Oc3ccc([N+](=O)[O-])cc3)[C@H](OC)C2)CC(=O)[C@H](C)/C=C(\C)[C@@H](O)[C@@H](OC)C(=O)[C@H](C)C[C@H](C)/C=C/C=C/C=C/1C` [Example 4A, 42-O-(4-Nitrophenyloxycarbonyl)rapamycin] the value was 1 nM. As for `CO[C@H]1C[C@@H]2CC[C@@H](C)[C@@](O)(O2)C(=O)C(=O)N2CCCC[C@H]2C(=O)O[C@H]([C@H](C)C[C@@H]2CC[C@@H](OC(=O)Oc3ccc([N+](=O)[O-])cc3)[C@H](OC)C2)CC(=O)[C@H](C)/C=C(\C)[C@@H](OC(=O)Oc2ccc([N+](=O)[O-])cc2)[C@@H](OC)C(=O)[C@H](C)C[C@H](C)/C=C/C=C/C=C/1C` [Example 4B, 31, 42-O-Bis(4-Nitrophenyloxycarbonyl)rapamycin], the concentration for half-maximal inhibition (IC50) in experiment [1] (Mus musculus, Lymphocyte, 72 h, read-out: IC50 Ester (IC50 data for LAF assay)) turned out to be 23 nM.

In the case of `C=CCOC(=O)O[C@@H]1CC[C@@H](C[C@@H](C)[C@@H]2CC(=O)[C@H](C)/C=C(\C)[C@@H](O)[C@@H](OC)C(=O)[C@H](C)C[C@H](C)/C=C/C=C/C=C(\C)[C@@H](OC)C[C@@H]3CC[C@@H](C)[C@@](O)(O3)C(=O)C(=O)N3CCCC[C@H]3C(=O)O2)C[C@H]1OC` [Example 5, 42-O-(Prop-2-enyloxycarbonyl)rapamycin], the half-inhibitory concentration (IC50) in experiment [1] (setting [7]) came out at 1.6 nM.

Regarding `CO[C@H]1C[C@@H]2CC[C@@H](C)[C@@](O)(O2)C(=O)C(=O)N2CCCC[C@H]2C(=O)O[C@H]([C@H](C)C[C@@H]2CC[C@@H](OC(=O)OCc3ccccc3)[C@H](OC)C2)CC(=O)[C@H](C)/C=C(\C)[C@@H](O)[C@@H](OC)C(=O)[C@H](C)C[C@H](C)/C=C/C=C/C=C/1C` [Example 6, 42-O-(Benzyloxycarbonyl)rapamycin], the 50% inhibitory concentration (IC50) in experiment [1] (setting [7]) was 0.32 nM. As for `C=CC[C@@H]1/C=C(\C)C[C@H](C)C[C@H](OC)[C@H]2O[C@@](O)(C(=O)C(=O)N3CCCC[C@H]3C(=O)O[C@H](/C(C)=C/[C@@H]3CC[C@@H](O)[C@H](OC)C3)[C@H](C)[C@@H](O)CC1=O)[C@H](C)C[C@@H]2OC` [FK-506], the “effectiveness as immunosuppressive agent” value in experiment [2] (useful in preventing transplant rejection) is “effective as immunosuppressive agents”. On to `CO[C@H]1C[C@@H]2CC[C@@H](C)[C@@](O)(O2)C(=O)C(=O)N2CCCC[C@H]2C(=O)O[C@H]([C@H](C)C[C@@H]2CC[C@@H](O)[C@H](OC)C2)CC(=O)[C@H](C)/C=C(\C)[C@@H](O)[C@@H](OC)C(=O)[C@H](C)C[C@H](C)/C=C/C=C/C=C/1C` [Rapamycin], for which, in experiment [1] (Table I, Rapamycin, comparative result beside each example ester, read-out: IC50 Rapamycin (IC50 data for LAF assay)), the IC50 was 3.9 nM and 3.8 nM and 6.3 nM. The “antifungal activity in vitro” value in the experiment with Candida albicans [3] was “antifungal activity, particularly against Candida albicans”. Moreover, the “antifungal activity in vivo” value in the experiment with Candida albicans [4] was “antifungal activity, particularly against Candida albicans”. Moreover, in the experiment on tumor, the antitumor activity result is on record as “antitumor activity”. The “efficacy in experimental allergic encephalomyelitis model” value in experiment [5] was “effective”. Besides, in experiment [6], the “efficacy in adjuvant arthritis model” value was “effective”. Moreover, the “inhibition of formation of IgE-like antibodies” value in the experiment on IgE-like antibodies was “effectively inhibited”. Moreover, the “inhibition of transplant rejection” value in experiment [2] (in vivo) is on record as “effective in inhibiting transplant rejection”.

The values above are taken from US5260300A, “Rapamycin carbonate esters as immuno-suppressant agents” (American Home Products Corporation, priority 1992, dated 1993).
